Reference: patent US20210309631A1, “SALT OF CYCLOHEXANE DERIVATIVE” (priority 2018, published 2021)
Read-outs that look alike come from different tables or passages of the source.

Experiments:
[1] = In vivo individual difference analysis: individual plasma concentration versus time in rats (Example 8); set-up: species or system SD rats; settings: intragastric 1 mg/kg; for Plasma Concentrations of Compound of Formula I: listed as Compound of Formula I; for concentration at 0 h: 0 h after administration
Procedure: Compound of Formula I and salts thereof (sulfate, hydrochloride salt, phosphate, maleate), supplied by Shanghai Jingxin Biopharmaceutical Co., Ltd. • Strain: SD rats; Gender: male; Body weight: about 250 grams; Source: shanghai Jiesijie Experimental Animal Co., Ltd Route: single intragastric administration; Capacity: measured in 10 mL/kg body weight Preparation: weighing appropriate amount of the free base or salt of the compound of Formula I, adding a small amount of 0.5% CMC-Na to grind, adding 0.5% CMC-Na to the volume. The concentration is measured as the base. 20 SD rats were divided into 5 groups with 4 rats in each group, fasted for 12 h and drank freely before administration. […] The blood was anticoagulated with 1% heparin, the plasma was separated by 8000 rpm centrifugation for 4 min and stored at -40° C. for testing. LC-MS/MS Method. Pharmacokinetic parameters after administration in rats were calculated using a non-compartmental model of DAS 2.0 software.

[2] = Hygroscopicity (DVS) experiment, 25° C./80% relative humidity; assay type: physicochemical; settings: DVS, 25° C./80% relative humidity; listed as Example 1 free base
Procedure: Dynamic vapor sorption curves were collected on a DVS Intrinsic by SMS (Surface Measurement Systems).
20 mg sample of the crystal forms of the Examples and Comparative Examples are placed in the environment of 25° C./80% relative humidity for a dynamic vapor sorption (DVS) test, and the test results […] are shown in Table 5.

[3] = Plasma pharmacokinetics in SD rats after single intragastric administration (Example 7); assay type: in vivo; settings: intragastric 1 mg/kg, Mean ± SD, non-compartmental model, listed as free base
Procedure: The in vivo absorption process and characteristics of the free base and four salts thereof (sulfate, hydrochloride salt, phosphate, maleate) of compound (I) in rats were studied. The pharmacokinetics of a single intragastric administration of 1 mg/kg of a compound of Formula I and four salts thereof (calculated by free base concentration in salt form) were studied in SD rats.
SD rats were given a single intragastric administration of 1 mg/kg free base of Example 1 and four salts thereof (including hydrochloride salt from Example 2, sulfate from Example 3, phosphate from Example 4 and maleate from Example 5). There were 4 male rats in each group. The concentration of the compound of Formula I in plasma was determined, and the pharmacokinetic parameters were calculated according to the concentration-time curve.

[4] = solubility in water; assay type: physicochemical; settings: listed as crystal Form A of the free base

Compound: CN(C)C(=O)N[C@H]1CC[C@H](CCN2CCN(c3cccc4ccsc34)CC2)CC1 [Example 1, N′-[trans-4-[2-[7-(benzo[b]thiophene)-7-piperazinyl]ethyl]cyclohexyl]-N,N-dimethylurea]
- Plasma Concentrations of Compound of Formula I ([1]; 5 min after administration, Mean ± SD): 3.40 ± 5.74 ng/mL
- Plasma Concentrations of Compound of Formula I ([1]; 5 min after administration, rat 1♂): 0.419 ng/mL
- Plasma Concentrations of Compound of Formula I ([1]; 5 min after administration, rat 2♂): 0.624 ng/mL
- Plasma Concentrations of Compound of Formula I ([1]; 5 min after administration, rat 3♂): 12.0 ng/mL
- Plasma Concentrations of Compound of Formula I ([1]; 5 min after administration, rat 4♂): 0.543 ng/mL
- Plasma Concentrations of Compound of Formula I ([1]; 0.167 h after administration, rat 1♂): 6.35 ng/mL
- Plasma Concentrations of Compound of Formula I ([1]; 0.167 h after administration, rat 3♂): 25.8 ng/mL
- Plasma Concentrations of Compound of Formula I ([1]; 0.333 h after administration, rat 1♂): 26.8 ng/mL
- Plasma Concentrations of Compound of Formula I ([1]; 0.333 h after administration, rat 2♂): 33.0 ng/mL
- Plasma Concentrations of Compound of Formula I ([1]; 0.333 h after administration, rat 3♂): 51.8 ng/mL
- Plasma Concentrations of Compound of Formula I ([1]; 0.5 h after administration, rat 2♂): 37.2 ng/mL
- Plasma Concentrations of Compound of Formula I ([1]; 0.5 h after administration, rat 3♂): 51.6 ng/mL
- Plasma Concentrations of Compound of Formula I ([1]; 1 h after administration, rat 3♂): 45.6 ng/mL
- Plasma Concentrations of Compound of Formula I ([1]; 2 h after administration, rat 3♂): 23.9 ng/mL
- Plasma Concentrations of Compound of Formula I ([1]; 2 h after administration, rat 4♂): 40.3 ng/mL
- Plasma Concentrations of Compound of Formula I ([1]; 4 h after administration, rat 2♂): 6.30 ng/mL
- Plasma Concentrations of Compound of Formula I ([1]; 4 h after administration, rat 3♂): 7.95 ng/mL
- Plasma Concentrations of Compound of Formula I ([1]; 4 h after administration, rat 4♂): 16.0 ng/mL
- Plasma Concentrations of Compound of Formula I ([1]; 6 h after administration, rat 2♂): 1.94 ng/mL
- Plasma Concentrations of Compound of Formula I ([1]; 6 h after administration, rat 4♂): 8.91 ng/mL
- Plasma Concentrations of Compound of Formula I ([1]; 9 h after administration, rat 2♂): 0.95 ng/mL
- Plasma Concentrations of Compound of Formula I ([1]; 9 h after administration, rat 4♂): 3.30 ng/mL
- Plasma Concentrations of Compound of Formula I ([1]; 12 h after administration, rat 1♂): 0.372 ng/mL
- Plasma Concentrations of Compound of Formula I ([1]; 12 h after administration, rat 2♂): 0.578 ng/mL
- Plasma Concentrations of Compound of Formula I ([1]; 12 h after administration, rat 3♂): 0.682 ng/mL
- Plasma Concentrations of Compound of Formula I ([1]; 12 h after administration, rat 4♂): 1.66 ng/mL
- Plasma Concentrations of Compound of Formula I ([1]; 24 h after administration, Mean ± SD): 0.497 ± 0.273 ng/mL
- Plasma Concentrations of Compound of Formula I ([1]; 24 h after administration, rat 1♂): 0.487 ng/mL
- Plasma Concentrations of Compound of Formula I ([1]; 24 h after administration, rat 2♂): 0.308 ng/mL
- Plasma Concentrations of Compound of Formula I ([1]; 24 h after administration, rat 3♂): 0.886 ng/mL
- Plasma Concentrations of Compound of Formula I ([1]; 24 h after administration, rat 4♂): 0.306 ng/mL
- concentration at 0 h ([1]; male, SD, rat, plasma, oral, 1 mg/kg, Mean ± SD, read-out: Plasma Concentrations of Compound of Formula I): 0 ng/mL
- concentration at 0 h ([1]; male, SD, rat, plasma, oral, 1 mg/kg, rat 1♂, read-out: Plasma Concentrations of Compound of Formula I): 0 ng/mL
- concentration at 0 h ([1]; male, SD, rat, plasma, oral, 1 mg/kg, rat 2♂, read-out: Plasma Concentrations of Compound of Formula I): 0 ng/mL
- concentration at 0 h ([1]; male, SD, rat, plasma, oral, 1 mg/kg, rat 3♂, read-out: Plasma Concentrations of Compound of Formula I): 0 ng/mL
- concentration at 0 h ([1]; male, SD, rat, plasma, oral, 1 mg/kg, rat 4♂, read-out: Plasma Concentrations of Compound of Formula I): 0 ng/mL
- concentration at 0.167 h ([1]; male, SD, rat, plasma, oral, 1 mg/kg, 0.167 h after administration, Mean ± SD, read-out: Plasma Concentrations of Compound of Formula I): 14.9 ± 8.3 ng/mL
- concentration at 0.167 h ([1]; male, SD, rat, plasma, oral, 1 mg/kg, 0.167 h after administration, rat 2♂, read-out: Plasma Concentrations of Compound of Formula I): 11.3 ng/mL
- concentration at 0.167 h ([1]; male, SD, rat, plasma, oral, 1 mg/kg, 0.167 h after administration, rat 4♂, read-out: Plasma Concentrations of Compound of Formula I): 16.3 ng/mL
- concentration at 0.333 h ([1]; male, SD, rat, plasma, oral, 1 mg/kg, 0.333 h after administration, Mean ± SD, read-out: Plasma Concentrations of Compound of Formula I): 42.2 ± 14.5 ng/mL
- concentration at 0.333 h ([1]; male, SD, rat, plasma, oral, 1 mg/kg, 0.333 h after administration, rat 4♂, read-out: Plasma Concentrations of Compound of Formula I): 57 ng/mL
- concentration at 0.5 h ([1]; male, SD, rat, plasma, oral, 1 mg/kg, 0.5 h after administration, Mean ± SD, read-out: Plasma Concentrations of Compound of Formula I): 46.4 ± 13.7 ng/mL
- concentration at 0.5 h ([1]; male, SD, rat, plasma, oral, 1 mg/kg, 0.5 h after administration, rat 1♂, read-out: Plasma Concentrations of Compound of Formula I): 33.6 ng/mL
- concentration at 0.5 h ([1]; male, SD, rat, plasma, oral, 1 mg/kg, 0.5 h after administration, rat 4♂, read-out: Plasma Concentrations of Compound of Formula I): 63.3 ng/mL
- concentration at 1 h ([1]; male, SD, rat, plasma, oral, 1 mg/kg, 1 h after administration, Mean ± SD, read-out: Plasma Concentrations of Compound of Formula I): 43.7 ± 14.8 ng/mL
- concentration at 1 h ([1]; male, SD, rat, plasma, oral, 1 mg/kg, 1 h after administration, rat 1♂, read-out: Plasma Concentrations of Compound of Formula I): 29.4 ng/mL
- concentration at 1 h ([1]; male, SD, rat, plasma, oral, 1 mg/kg, 1 h after administration, rat 2♂, read-out: Plasma Concentrations of Compound of Formula I): 36.3 ng/mL
- concentration at 1 h ([1]; male, SD, rat, plasma, oral, 1 mg/kg, 1 h after administration, rat 4♂, read-out: Plasma Concentrations of Compound of Formula I): 63.6 ng/mL
- concentration at 2 h ([1]; male, SD, rat, plasma, oral, 1 mg/kg, 2 h after administration, Mean ± SD, read-out: Plasma Concentrations of Compound of Formula I): 25.1 ± 10.6 ng/mL
- concentration at 2 h ([1]; male, SD, rat, plasma, oral, 1 mg/kg, 2 h after administration, rat 1♂, read-out: Plasma Concentrations of Compound of Formula I): 16.8 ng/mL
- concentration at 2 h ([1]; male, SD, rat, plasma, oral, 1 mg/kg, 2 h after administration, rat 2♂, read-out: Plasma Concentrations of Compound of Formula I): 19.2 ng/mL
- concentration at 4 h ([1]; male, SD, rat, plasma, oral, 1 mg/kg, 4 h after administration, Mean ± SD, read-out: Plasma Concentrations of Compound of Formula I): 8.91 ± 4.85 ng/mL
- concentration at 4 h ([1]; male, SD, rat, plasma, oral, 1 mg/kg, 4 h after administration, rat 1♂, read-out: Plasma Concentrations of Compound of Formula I): 5.38 ng/mL
- concentration at 6 h ([1]; male, SD, rat, plasma, oral, 1 mg/kg, 6 h after administration, Mean ± SD, read-out: Plasma Concentrations of Compound of Formula I): 3.99 ± 3.32 ng/mL
- concentration at 6 h ([1]; male, SD, rat, plasma, oral, 1 mg/kg, 6 h after administration, rat 1♂, read-out: Plasma Concentrations of Compound of Formula I): 2.03 ng/mL
- concentration at 6 h ([1]; male, SD, rat, plasma, oral, 1 mg/kg, 6 h after administration, rat 3♂, read-out: Plasma Concentrations of Compound of Formula I): 3.06 ng/mL
- concentration at 9 h ([1]; male, SD, rat, plasma, oral, 1 mg/kg, 9 h after administration, Mean ± SD, read-out: Plasma Concentrations of Compound of Formula I): 1.65 ± 1.13 ng/mL
- concentration at 9 h ([1]; male, SD, rat, plasma, oral, 1 mg/kg, 9 h after administration, rat 1♂, read-out: Plasma Concentrations of Compound of Formula I): 0.876 ng/mL
- concentration at 9 h ([1]; male, SD, rat, plasma, oral, 1 mg/kg, 9 h after administration, rat 3♂, read-out: Plasma Concentrations of Compound of Formula I): 1.47 ng/mL
- concentration at 12 h ([1]; male, SD, rat, plasma, oral, 1 mg/kg, 12 h after administration, Mean ± SD, read-out: Plasma Concentrations of Compound of Formula I): 0.823 ± 0.573 ng/mL
- Hygroscopicity [2]: Almost no
- Vapor sorption [2]: 0.16%
- MRT0-∞ [3]: 3.63 ± 0.306 h
- Tmax [3]: 0.583 ± 0.289 h
- t1/2 [3]: 2.78 ± 0.463 h
- solubility in water [4]: about 0.031 mg/ml
